Three compounds from patent publication US11542313B2, “Incretin analogs and uses thereof” (Eli Lilly and Company, priority 2017, dated 2023) can be followed below.

Values joined by “and” are separate entries in the source; they are usually repeats but may differ in a detail not shown here. Equal entries are not always repeated. Marks after values point to notes of the source that are not given here. *1 amine or outer side, *2 acyl side, *3 side chain or, on linkers, in order; H or OH if unused. Where a SMILES comes first, the peptide text is derived from it. Side-chain parts run from the residue outwards. [ ]: non-standard residue; d: D form. The star is where a group is joined. C20 diacid = O=C(O)CCCCCCCCCCCCCCCCCCC(=O)*; γGlu = O=C(O)[C@H](CCC(=O)[*:2])N[*:1]; αMeL = CC(C)C[C@](C)(N)C(=O)O; αMeK = C[C@](N)(CCCCN)C(=O)O; AEEA = NCCOCCOCC(=O)O; Aib = CC(C)(N)C(=O)O

One data set relates to male Wistar rats. As to the kind of experiment: Intravenous glucose tolerance test (ivGTT), insulin secretion in male Wistar rats. Format: in vivo, rat. Also on record: unit not given here. To be noted: semaglutide 10 nmol/kg positive control in the run of the Example, mean ± SEM, n=6. As to the method:
An intravenous glucose tolerance test (ivGTT) in rats (male Wistar) is used to estimate insulinotropic potency of the exemplary analogs. The GLP-1 RA semaglutide is used as a positive control. Rats with surgically implanted cannulas in the jugular vein and carotid artery (Envigo, Indianapolis, Ind.; 280-320 grams) are housed one per cage in polycarbonate cages with filter tops. Rats are maintained on a 12-hour light-dark cycle at 21° C. and receive 2014 Teklad Global Diet (Envigo, Indianapolis) and deionized water ad libitum. Rats are randomized by body weight and dosed 1.5 mL/kg subcutaneous (sc) with exemplary analogs 16 hours prior to glucose administration, and then fasted. Stock concentrations of […] of the exemplary analogs are diluted in Tris buffer pH 8.0 to 6.667 nMol/mL, 2.0 nMol/mL, 0.667 nMol/mL, 0.2 nMol/mL; doses tested are vehicle, 1, 3 and 10 nMol/kg, and, in some cases 0.3 and 30 nMol/kg. Semaglutide is used as positive control, and its insulinotropic effects are measured both in its own test (vehicle and 1, 3, 10 and 30 nMol/kg doses) and in connection with each run of the exemplary analogs (10 nMol/kg dose).
A time 0 blood sample is collected into EDTA tubes after which glucose is administered ([…], 5 mL/kg). […] Plasma insulin is determined using an electrochemiluminescence assay (Meso Scale, Gaithersburg, Md.). […]

The test system of data set [1] is diet-induced obese (DIO) C57BL/6 mice. As to the kind of experiment: Diet-induced obese C57BL/6 mice, 15-day study. In kind it is in vivo, mouse. Conditions: for Body weight % change: days 1 to 15, DIO mice. As to the method: The exemplary incretin analogs as described herein are proposed as a treatment not only for diabetes but also for metabolic syndrome, which is a collection of co-morbidities (dyslipidemia, obesity, hepatic steatosis, etc.) associated with insulin resistance and diabetes. To investigate the effects of the exemplary analogs on parameters such as weight loss, metabolism, body composition and hepatic steatosis, they were dosed to C57BL/6 diet-induced obese (DIO) mice. These animals, although not diabetic, display insulin resistance, dyslipidemia and hepatic steatosis, all characteristics of metabolic syndrome, after being placed on a high-fat diet for 18 weeks.
Specifically, DIO male C57BL/6 mice 24 to 25 weeks old maintained on a calorie-rich diet are used in the following studies. Mice are individually housed in a temperature-controlled (24° C.) facility with 12-hour light/dark cycle (lights on 22:00) and free access to food (TD95217) and water. After a minimum of 2 weeks acclimation to the facility, the mice are randomized according to their body weight, so each experimental group of animals would have similar body weight. The body weights range from 40 to 51 g.
All groups contain 5-6 mice. Vehicle, exemplary analogs dissolved in vehicle (40 mM Tris-HCl at pH 8.0), and semaglutide dissolved in vehicle are administered by subcutaneous (SC) injection (10 mL/kg) to ad libitum fed DIO mice 30 to 90 minutes prior to the onset of the dark cycle every 3 days for 15 days. SC injections are made on Day 1, 4, 7, 10 and 13. Body weight and food intake are measured daily throughout the study.
Absolute changes in body weight are calculated by subtracting the body weight of the same animal prior to the first injection of vehicle, analog or semaglutide. On Days 0 and 15, total fat mass is measured by nuclear magnetic resonance (NMR) using an Echo Medical System Instrument (Houston, Tex.). On Day 15, animals are sacrificed prior to dark photoperiod, and the livers are removed and frozen. Liver triglycerides, determined from homogenates of livers collected at sacrifice, and plasma cholesterol are measured on a Hitachi Modular P clinical analyzer.
Data are presented as mean±SEM of 5-6 animals per group in Tables 7 and 8 below. Statistical analysis is performed using repeated measures ANOVA, followed by Dunnett's method for multiple comparisons. Significant differences are identified at p<0.05.

The target of data set [2] is T1, human glucagon receptor (GcgR) (Homo sapiens, UniProt P47871).
T1 construct: expressed in transfected cells; host or cells: HEK293 (membranes)
T1 sequence (P47871 26-477): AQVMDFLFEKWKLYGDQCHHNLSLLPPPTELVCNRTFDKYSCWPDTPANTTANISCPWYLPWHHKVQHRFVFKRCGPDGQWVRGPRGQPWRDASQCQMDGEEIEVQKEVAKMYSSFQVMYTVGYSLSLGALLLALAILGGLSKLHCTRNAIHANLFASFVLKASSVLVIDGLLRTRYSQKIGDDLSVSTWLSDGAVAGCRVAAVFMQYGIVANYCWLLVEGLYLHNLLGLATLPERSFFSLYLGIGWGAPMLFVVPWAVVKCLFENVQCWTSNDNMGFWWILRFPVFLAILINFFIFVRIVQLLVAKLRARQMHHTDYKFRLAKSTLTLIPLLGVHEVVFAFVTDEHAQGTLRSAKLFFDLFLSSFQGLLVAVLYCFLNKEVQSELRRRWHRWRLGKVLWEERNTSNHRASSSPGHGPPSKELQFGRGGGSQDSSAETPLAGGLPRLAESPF
As to the kind of experiment: Radioligand competition binding (SPA), human GcgR membranes. To be noted: HEK293 membranes, SPA, bacitracin present; mean; read-out: Ki, GcgR. The text has this:
(§1) Radioligand competition binding assays are run to determine the equilibrium dissociation constant for exemplary compounds and comparator molecules.
(§2) Competition curves are plotted as the percent specific inhibition (y-axis) versus log concentration of compound (x-axis) and analyzed using a four parameter nonlinear regression fit with variable slope (ABase or Genedata).
On the technique in general: In a radioligand displacement assay an active substance lowers the binding of a labelled ligand.

The target of data set [3] is T2, human GIP receptor (GIPR) (Homo sapiens, UniProt P48546).
T2 construct: expressed in transfected cells; host or cells: HEK293 (membranes)
T2 sequence (P48546 22-466): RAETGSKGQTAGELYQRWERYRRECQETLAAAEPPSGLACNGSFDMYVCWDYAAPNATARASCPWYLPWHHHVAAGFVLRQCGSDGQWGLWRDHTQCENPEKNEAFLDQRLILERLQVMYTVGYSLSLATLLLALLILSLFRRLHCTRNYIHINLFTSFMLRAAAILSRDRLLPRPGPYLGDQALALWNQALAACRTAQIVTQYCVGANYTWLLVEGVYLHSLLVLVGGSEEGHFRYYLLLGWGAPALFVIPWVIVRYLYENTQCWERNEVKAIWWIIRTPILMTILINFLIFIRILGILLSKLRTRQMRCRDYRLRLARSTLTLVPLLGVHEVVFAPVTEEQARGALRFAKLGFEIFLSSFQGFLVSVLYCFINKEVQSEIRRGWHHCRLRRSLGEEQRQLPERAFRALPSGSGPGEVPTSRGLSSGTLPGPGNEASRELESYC
The experiment in a line: Radioligand competition binding (SPA), human GIPR membranes. To be noted: HEK293 membranes, SPA, bacitracin present; mean; read-out: Ki, GIPR.
Description: as §1, §2

A further data set addresses T3, GLP-1 receptor (GLP-1R) (Homo sapiens, UniProt P43220).
T3 construct: expressed in transfected cells; host or cells: HEK293 (membranes)
The experiment in a line: Radioligand competition binding (SPA), human GLP-1R membranes. Conditions: HEK293 membranes, SPA, bacitracin present; mean; read-out: Ki, GLP-1R.
Description: as §1, §2

The next data set deals with T4, hGcgR (Homo sapiens, UniProt P47871).
T4 construct: expressed in transfected cells; host or cells: HEK293
T4 sequence (P47871 26-477): as the sequence (P47871 26-477) above
The experiment in a line: cAMP assay in HEK293 cells expressing hGcgR, 0.1% casein. Format: cell-based. Conditions: in the presence of 0.1% casein; read-out: cAMP EC50, GcGR. (Cyclic AMP is a second messenger, typically raised through Gs and lowered through Gi signalling.)

Another data set concerns the target T5, hGIPR (Homo sapiens, UniProt P48546).
T5 construct: expressed in transfected cells; host or cells: HEK293
T5 sequence (P48546 22-466): T2 sequence (P48546 22-466)
As to the kind of experiment: cAMP assay in HEK293 cells expressing hGIPR, 0.1% casein. In kind it is cell-based. To be noted: in the presence of 0.1% casein; read-out: cAMP EC50, GIPR.

For the next data set, the target named is hGLP-1R (Homo sapiens, UniProt P43220). As to the kind of experiment: cAMP assay in HEK293 cells expressing hGLP-1R, 0.1% casein. Conditions: in the presence of 0.1% casein; read-out: cAMP EC50, GLP-1R. Format: cell-based.
Chain of hGLP-1R (P43220 24-463): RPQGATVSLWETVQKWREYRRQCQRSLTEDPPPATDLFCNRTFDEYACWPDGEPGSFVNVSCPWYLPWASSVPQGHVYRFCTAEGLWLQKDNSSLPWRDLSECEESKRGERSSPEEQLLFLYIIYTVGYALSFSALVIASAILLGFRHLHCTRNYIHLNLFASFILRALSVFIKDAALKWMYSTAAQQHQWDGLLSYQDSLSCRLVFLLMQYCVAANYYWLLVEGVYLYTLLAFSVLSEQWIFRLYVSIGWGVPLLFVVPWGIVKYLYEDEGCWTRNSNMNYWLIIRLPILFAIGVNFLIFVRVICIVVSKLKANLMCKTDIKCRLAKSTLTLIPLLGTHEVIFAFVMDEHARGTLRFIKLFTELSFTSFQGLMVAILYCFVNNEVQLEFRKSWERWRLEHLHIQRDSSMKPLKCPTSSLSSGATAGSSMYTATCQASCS
The conditions of data set [4]: rat, in vivo, sc, 100 nmol/kg.
Description: (§3) The pharmacokinetics of the exemplary analogs are evaluated following a single subcutaneous administration of 100 nM/kg to male Sprague Dawley rats. Blood samples are collected over 120 hours, and resulting individual plasma concentrations are used to calculate pharmacokinetic parameters. Peptide plasma (K3 EDTA) concentrations are determined using a qualified LC/MS method that measured the intact mass of the analog. Each peptide and an analog as an internal standard are extracted from 100% specie specified plasma using methanol with 0.1% formic acid. A Thermo Q-Exactive, High Resolution Instrument, and a Thermo Easy Spray PepMap are combined for LC/MS detection.
The next data set in a line: in vivo. Conditions: male, Sprague-Dawley, rat, sc, 100 nmol/kg.
[5] abbreviates: 3 nmol/kg, after fifteen days, DIO mice, mean ± SEM.

T3 sequence (P43220 24-463): as above
Description for in vivo: as §3

In the case of semaglutide, the “AUC30min of Insulin after a Bolus IV Glucose” value in the data set on male Wistar rats was 44.7 +/− 3.7* and 55.1 +/− 9.0* and 40.2 +/− 2.5* and 38.4 +/− 6.0* and 56.3 +/− 7.7* and 48.4 +/− 6.6* and 51.86 +/− 6.7* and 45.6 +/− 6.6*. Besides, in [1] (3 nmol/kg SC every 3 days), the “Body weight % change” value was −2.62 ± 0.49%. For the same compound, in [1] (setting [5]), the ALT worked out at 99.8 ± 14.84 IU/L, the Cholesterol is 218.0 ± 9.23 mg/dL, the Glucose is 137.8 ± 7.34 mg/dL and the “Liver Triglycerides” value came out at 226.4 ± 23.8 mg/g tissue. Further, the “Plasma Insulin” value in [1] (setting [5]) was 4196 ± 1014 pg/mL. Further, the “Body weight % change” value in [1] (10 nmol/kg SC every 3 days) was −10.31 ± 1.25%. Besides, the “Body weight % change” value in data set [1] (30 nmol/kg SC every 3 days) is −15.49 ± 2.44%.

For orientation: Ki means a measure of affinity in units of concentration, obtained from inhibition or displacement. As a reminder, the EC50 is the concentration that produces a half-maximal response. A word on the CL/F: it is the apparent clearance, not corrected for the fraction that reaches the circulation. For orientation: Tmax means the time from dosing to the highest level. As a reminder, the half-life is how long it takes for the measured level to halve. As for `CC[C@H](C)[C@H](NC(=O)[C@H](Cc1ccccc1)NC(=O)[C@H](C)NC(=O)[C@](C)(CCCCN)NC(=O)[C@H](CCC(N)=O)NC(=O)[C@H](C)NC(=O)[C@H](CCCCNC(=O)COCCOCCNC(=O)COCCOCCNC(=O)CC[C@H](NC(=O)CCCCCCCCCCCCCCCCCCC(=O)O)C(=O)O)NC(=O)[C@H](CCCCN)NC(=O)[C@H](CC(=O)O)NC(=O)[C@H](CC(C)C)NC(=O)[C@](C)(CC(C)C)NC(=O)[C@@H](NC(=O)[C@H](CO)NC(=O)[C@H](Cc1ccc(O)cc1)NC(=O)[C@H](CC(=O)O)NC(=O)[C@H](CO)NC(=O)[C@@H](NC(=O)[C@H](Cc1ccccc1)NC(=O)[C@@H](NC(=O)CNC(=O)[C@H](CCC(N)=O)NC(=O)C(C)(C)NC(=O)[C@@H](N)Cc1ccc(O)cc1)[C@@H](C)O)[C@@H](C)O)[C@@H](C)CC)C(=O)N[C@@H](CCC(=O)O)C(=O)N[C@@H](Cc1ccc(O)cc1)C(=O)N[C@@H](CC(C)C)C(=O)N[C@@H](CC(C)C)C(=O)N[C@@H](C)C(=O)NC(C)(C)C(=O)NCC(=O)N1CCC[C@H]1C(=O)N[C@@H](CO)C(=O)N[C@@H](CO)C(=O)NCC(=O)N[C@@H](C)C(=O)N1CCC[C@H]1C(=O)N1CCC[C@H]1C(=O)N1CCC[C@H]1C(=O)N[C@@H](CO)C(N)=O` [Example 1] (H-Y[Aib]QGTFTSDYSI[αMeL]LDKK([AEEA-AEEA-γGlu-C20 diacid])AQ[αMeK]AFIEYLLA[Aib]GPSSGAPPPS-NH2; N-terminus assumed), the Ki amounted to 8.41 nM in [2], 0.0469 nM in [3] and 2.64 nM on GLP-1 receptor (GLP-1R). For the same compound, the EC50 at hGcgR worked out at 0.114 nM; on hGIPR, 0.0523 nM; at hGLP-1R, 0.153 nM. Further, the AUCINF_D_obs in [4] is recorded as 95.7 hr*kg*nmol/L/nmol. The compound also gave a CL/F in “in vivo” of 0.173 mL/min/kg. Further, in the data set “in vivo”, the Tmax was found to be 8 h. The compound further showed a half-life in the data set “in vivo” of 11.7 h.

As to `CC[C@H](C)[C@H](NC(=O)[C@H](Cc1ccccc1)NC(=O)[C@H](C)NC(=O)C(C)(C)NC(=O)[C@H](CCC(N)=O)NC(=O)[C@H](C)NC(=O)[C@H](CCCCNC(=O)COCCOCCNC(=O)CC[C@H](NC(=O)CCCCCCCCCCCCCCCCCCC(=O)O)C(=O)O)NC(=O)[C@H](CCCCN)NC(=O)[C@H](CC(=O)O)NC(=O)[C@H](CC(C)C)NC(=O)[C@H](CC(C)C)NC(=O)[C@@H](NC(=O)[C@H](CO)NC(=O)[C@H](Cc1ccc(O)cc1)NC(=O)[C@H](CC(=O)O)NC(=O)[C@H](CO)NC(=O)[C@@H](NC(=O)[C@H](Cc1ccccc1)NC(=O)[C@@H](NC(=O)CNC(=O)[C@H](CCC(N)=O)NC(=O)C(C)(C)NC(=O)[C@@H](N)Cc1ccc(O)cc1)[C@@H](C)O)[C@@H](C)O)[C@@H](C)CC)C(=O)N[C@@H](CCC(=O)O)C(=O)N[C@@H](Cc1ccc(O)cc1)C(=O)N[C@@H](CC(C)C)C(=O)N[C@@H](CC(C)C)C(=O)N[C@@H](C)C(=O)NC(C)(C)C(=O)NCC(=O)N1CCC[C@H]1C(=O)N[C@@H](CO)C(=O)N[C@@H](CO)C(=O)NCC(=O)N[C@@H](C)C(=O)N1CCC[C@H]1C(=O)N1CCC[C@H]1C(=O)N1CCC[C@H]1C(=O)N[C@@H](CO)C(N)=O` [Example 4] (H-Y[Aib]QGTFTSDYSILLDKK([AEEA-γGlu-C20 diacid])AQ[Aib]AFIEYLLA[Aib]GPSSGAPPPS-NH2), the inhibition constant (Ki) worked out at 2.55 nM in data set [2], 0.0374 nM in [3] and 3.54 nM on GLP-1 receptor (GLP-1R). In addition, the EC50 at hGcgR was determined as 0.0674 nM; at hGIPR, 0.0648 nM; at hGLP-1R, 0.18 nM. This compound also displayed an AUCINF_D_obs in data set [4] of 140 hr*kg*nmol/L/nmol. The CL/F in “in vivo” was 0.12 mL/min/kg. Also, in the data set “in vivo”, the Tmax came to 16 h. In addition, the half-life in the data set “in vivo” was 19.9 h.
